Reference: the CheMixHub viscosity set
Several values for one entry are separate records, joined by “and”; a condition that tells them apart may be missing. Equal values may be shown once.

Test: xn = mol fraction of the nth substance listed

C1=C[C@H]2[C@@H](C1)[C@H]1C=C[C@@H]2C1 + CC1CCCCC1
viscosity [mPa·s], 101.2 kPa
Settings | x1 = 0.0987 | x1 = 0.2012 | x1 = 0.3023 | x1 = 0.4007 | x1 = 0.5024 | x1 = 0.6001 | x1 = 0.6994 | x1 = 0.8017 | x1 = 0.9021
293.15 K | 0.8197 | 0.9187 | 1.043 | 1.198 | 1.398 | 1.646 | 2.032 | 2.607 | 3.386
298.15 K | 0.7605 | 0.8517 | 0.9677 | 1.1 | 1.28 | 1.504 | 1.855 | 2.367 | 3.029
303.15 K | 0.7145 | 0.791 | 0.8907 | 1.011 | 1.178 | 1.387 | 1.693 | 2.156 | 2.723
308.15 K | 0.6717 | 0.7439 | 0.8387 | 0.9497 | 1.109 | 1.306 | 1.586 | 1.993 | 2.477
313.15 K | 0.6316 | 0.7051 | 0.7996 | 0.9101 | 1.05 | 1.226 | 1.473 | 1.819 | 2.259
318.15 K | 0.5952 | 0.6697 | 0.7496 | 0.8519 | 0.9802 | 1.138 | 1.359 | 1.668 | 2.059

CSCC[C@H](N)C(=O)O + O
viscosity, 101 kPa
Settings | 293.15 K | 298.15 K | 303.15 K | 308.15 K | 313.15 K | 318.15 K
x1 = 0.00045 | 1.011 mPa·s and 1.009 mPa·s | 0.8992 mPa·s and 0.8967 mPa·s | 0.8057 mPa·s and 0.8039 mPa·s | 0.727 mPa·s and 0.7258 mPa·s | 0.6602 mPa·s and 0.6603 mPa·s | 0.6044 mPa·s
x1 = 0.0009 | 1.019 mPa·s and 1.016 mPa·s | 0.9063 mPa·s and 0.903 mPa·s | 0.8126 mPa·s and 0.8103 mPa·s | 0.734 mPa·s and 0.7327 mPa·s | 0.6671 mPa·s and 0.6678 mPa·s | –
x1 = 0.0013 | 1.023 mPa·s | 0.9098 mPa·s | 0.8169 mPa·s | 0.7392 mPa·s | 0.6743 mPa·s | –
x1 = 0.00135 | – | 0.9131 mPa·s | 0.8195 mPa·s | 0.7408 mPa·s | 0.6735 mPa·s | 0.6178 mPa·s
x1 = 0.001798 | – | – | 0.8264 mPa·s | 0.7475 mPa·s | – | 0.6244 mPa·s
x1 = 0.0018 | – | 0.9165 mPa·s | 0.8232 mPa·s | 0.745 mPa·s | 0.6815 mPa·s | –
x1 = 0.002247 | 1.039 mPa·s | 0.9266 mPa·s | 0.833 mPa·s | 0.754 mPa·s | 0.687 mPa·s | 0.631 mPa·s
x1 = 0.00225 | 1.037 mPa·s | 0.9232 mPa·s | 0.8295 mPa·s | 0.7524 mPa·s | 0.688 mPa·s | –
x1 = 0.00269 | 1.044 mPa·s | 0.9295 mPa·s | 0.8368 mPa·s | 0.7588 mPa·s | 0.6951 mPa·s | –
x1 = 0.002693 | 1.046 mPa·s | 0.9335 mPa·s | 0.8396 mPa·s | 0.7607 mPa·s | 0.6936 mPa·s | 0.6373 mPa·s
x1 = 0.00314 | 1.05 mPa·s | 0.936 mPa·s | 0.8435 mPa·s | 0.7657 mPa·s | 0.7019 mPa·s | –
x1 = 0.003143 | 1.053 mPa·s | 0.9403 mPa·s | 0.8465 mPa·s | 0.7675 mPa·s | 0.6999 mPa·s | 0.6436 mPa·s
x1 = 0.003588 | 1.06 mPa·s | 0.9474 mPa·s | 0.8535 mPa·s | 0.7743 mPa·s | 0.7063 mPa·s | 0.6495 mPa·s
x1 = 0.00359 | 1.057 mPa·s | 0.9426 mPa·s | 0.85 mPa·s | 0.7724 mPa·s | 0.7087 mPa·s | –

CC(C)[N+](=O)[O-] + c1ccccc1
293.15 K, 101.33 kPa
Settings | viscosity [mPa·s]
x1 = 0.0983 | 0.631
x1 = 0.2123 | 0.62
x1 = 0.2863 | 0.619
x1 = 0.4048 | 0.622
x1 = 0.5002 | 0.631
x1 = 0.5981 | 0.641
x1 = 0.7032 | 0.661
x1 = 0.7847 | 0.683
x1 = 0.908 | 0.731

Brc1ccccc1 + CCCCCO
293.15 K, 101.33 kPa
Settings | viscosity [mPa·s]
x2 = 0.0631 | 1.14
x2 = 0.1715 | 1.212
x2 = 0.2092 | 1.252
x2 = 0.2807 | 1.335
x2 = 0.3259 | 1.398
x2 = 0.3831 | 1.512
x2 = 0.4182 | 1.57
x2 = 0.4909 | 1.716
x2 = 0.5969 | 2.011
x2 = 0.6886 | 2.346
x2 = 0.7544 | 2.636
x2 = 0.8796 | 3.294

Brc1ccccc1 + Clc1ccccc1
298.15 K, 101 kPa
Settings | viscosity [mPa·s]
x2 = 0.299 | 0.934
x2 = 0.512 | 0.86
x2 = 0.676 | 0.823
x2 = 0.828 | 0.774

C1COCCO1 + CCCCCCC
viscosity [mPa·s], 101 kPa
Settings | x1 = 0.1112 | x1 = 0.225 | x1 = 0.3223 | x1 = 0.4312 | x1 = 0.5017 | x1 = 0.6114 | x1 = 0.7213 | x1 = 0.8211 | x1 = 0.9112
308.15 K | 0.363 | 0.396 | 0.422 | 0.471 | 0.505 | 0.572 | 0.658 | 0.76 | 0.875
313.15 K | 0.354 | 0.381 | 0.409 | 0.446 | 0.475 | 0.535 | 0.618 | 0.713 | 0.814
318.15 K | 0.336 | 0.362 | 0.387 | 0.421 | 0.449 | 0.504 | 0.579 | 0.666 | 0.764

C1COCCO1 + c1ccccc1
303.15 K, 101 kPa
Settings | viscosity [mPa·s]
x1 = 0.1009 | 0.603
x1 = 0.104 | 0.599
x1 = 0.207 | 0.644
x1 = 0.3017 | 0.687
x1 = 0.309 | 0.686
x1 = 0.4005 | 0.736
x1 = 0.411 | 0.733
x1 = 0.4969 | 0.787
x1 = 0.511 | 0.779
x1 = 0.6 | 0.841
x1 = 0.61 | 0.828
x1 = 0.7019 | 0.895
x1 = 0.709 | 0.882
x1 = 0.8015 | 0.961
x1 = 0.807 | 0.937
x1 = 0.904 | 0.991

OCC(F)(F)F + O=C1CCCN1
viscosity [mPa·s], 101 kPa
Settings | x1 = 0.3 | x1 = 0.4 | x1 = 0.5 | x1 = 0.6 | x1 = 0.7 | x1 = 0.8 | x1 = 0.9
293.15 K | 9.082 | 6.392 | 4.918 | 3.907 | 3.208 | 2.768 | 2.477
303.15 K | 6.16 | 4.724 | 3.801 | 3.071 | 2.519 | 2.146 | 1.882
313.15 K | 4.448 | 3.625 | 3.008 | 2.458 | 2.015 | 1.705 | 1.478
323.15 K | 3.389 | 2.875 | 2.431 | 1.999 | 1.64 | 1.384 | 1.194
